In article PMC12743403, “Green-synthesized silver nanoparticles from Camellia sinensis: mechanistic insights into phenolic-mediated multifunctional biological activities” (BMC Plant Biology, 2025):

Test system: T1, urease
T1 construct: gene jack bean urease
Settings: 100 mM urea, room temperature, 10 min; reference inhibitor

NC(N)=S [Thiourea]
Urease IC50: 24.5 ± 0.7 µg/mL
